Assays:
5-LO = target: T1, 5-LO (Homo sapiens, UniProt P09917); experiment: Biochemical assay 5-LO; details: Hu
T1 sequence (P09917 1-674): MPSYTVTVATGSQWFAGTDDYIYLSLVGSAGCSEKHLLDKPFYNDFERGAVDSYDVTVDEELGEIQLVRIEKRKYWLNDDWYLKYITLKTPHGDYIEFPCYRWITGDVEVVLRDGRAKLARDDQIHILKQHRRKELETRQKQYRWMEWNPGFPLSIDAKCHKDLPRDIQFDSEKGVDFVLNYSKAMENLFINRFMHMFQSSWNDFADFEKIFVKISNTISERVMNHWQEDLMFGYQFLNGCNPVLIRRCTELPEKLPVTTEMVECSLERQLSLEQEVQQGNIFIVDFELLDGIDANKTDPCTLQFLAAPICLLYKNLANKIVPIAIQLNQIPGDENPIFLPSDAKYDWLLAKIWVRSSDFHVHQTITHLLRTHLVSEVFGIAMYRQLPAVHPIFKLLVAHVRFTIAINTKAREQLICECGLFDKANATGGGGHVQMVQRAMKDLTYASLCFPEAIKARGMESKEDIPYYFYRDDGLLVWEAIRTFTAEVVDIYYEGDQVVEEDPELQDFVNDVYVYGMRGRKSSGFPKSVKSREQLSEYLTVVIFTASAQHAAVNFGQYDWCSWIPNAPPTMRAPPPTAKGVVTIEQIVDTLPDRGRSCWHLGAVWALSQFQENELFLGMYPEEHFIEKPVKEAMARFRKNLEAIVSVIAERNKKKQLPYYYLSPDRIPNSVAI

Adrenergic α2B = target: T2, Adrenergic α2B (Homo sapiens, UniProt P18089); experiment: Biochemical assay Adrenergic α2B; assay type: binding; details: Hu; for Ki: value in parentheses
T2 sequence (P18089 1-450): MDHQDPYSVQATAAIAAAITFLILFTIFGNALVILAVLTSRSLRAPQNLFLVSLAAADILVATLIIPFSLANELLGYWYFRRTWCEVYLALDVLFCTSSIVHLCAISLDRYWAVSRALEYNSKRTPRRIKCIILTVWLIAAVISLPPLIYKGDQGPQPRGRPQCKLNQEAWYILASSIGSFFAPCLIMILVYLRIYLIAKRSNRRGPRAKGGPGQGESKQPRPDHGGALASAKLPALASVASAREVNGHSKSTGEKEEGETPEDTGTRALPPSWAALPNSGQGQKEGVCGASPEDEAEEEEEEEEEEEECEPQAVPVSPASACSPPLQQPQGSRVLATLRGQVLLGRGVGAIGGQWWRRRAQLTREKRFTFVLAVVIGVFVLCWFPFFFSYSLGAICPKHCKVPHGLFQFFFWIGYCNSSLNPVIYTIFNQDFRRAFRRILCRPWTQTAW

PDE1 = experiment: Biochemical assay PDE1; details: PDE1, Bov
PDE6 = target: T3, PDE6 (Bos taurus, UniProt P11541+P23439); experiment: Biochemical assay PDE6; details: PDE6, Bov
T3 sequence (P11541 1-859): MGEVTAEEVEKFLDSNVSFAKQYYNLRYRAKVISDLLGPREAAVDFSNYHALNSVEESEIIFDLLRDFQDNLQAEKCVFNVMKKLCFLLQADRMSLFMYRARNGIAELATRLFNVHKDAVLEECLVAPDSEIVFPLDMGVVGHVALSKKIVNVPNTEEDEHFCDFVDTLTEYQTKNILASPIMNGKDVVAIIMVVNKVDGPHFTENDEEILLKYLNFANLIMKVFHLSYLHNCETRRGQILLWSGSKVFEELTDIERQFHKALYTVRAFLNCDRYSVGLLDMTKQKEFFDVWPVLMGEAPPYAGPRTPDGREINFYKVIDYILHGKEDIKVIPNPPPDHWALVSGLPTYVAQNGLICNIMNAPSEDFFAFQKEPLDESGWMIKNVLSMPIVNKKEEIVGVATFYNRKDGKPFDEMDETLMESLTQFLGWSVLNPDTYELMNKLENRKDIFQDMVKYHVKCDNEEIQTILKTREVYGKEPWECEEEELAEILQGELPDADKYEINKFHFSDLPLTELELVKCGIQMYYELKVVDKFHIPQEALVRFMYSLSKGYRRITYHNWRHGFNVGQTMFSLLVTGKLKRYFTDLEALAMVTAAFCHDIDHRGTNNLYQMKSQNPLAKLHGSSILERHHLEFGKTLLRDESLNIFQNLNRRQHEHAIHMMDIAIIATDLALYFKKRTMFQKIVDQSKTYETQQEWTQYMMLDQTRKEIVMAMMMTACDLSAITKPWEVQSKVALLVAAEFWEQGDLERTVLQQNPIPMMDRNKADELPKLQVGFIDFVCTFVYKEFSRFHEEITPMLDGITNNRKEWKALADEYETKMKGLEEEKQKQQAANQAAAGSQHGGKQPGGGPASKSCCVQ
T3 sequence (P23439 1-853): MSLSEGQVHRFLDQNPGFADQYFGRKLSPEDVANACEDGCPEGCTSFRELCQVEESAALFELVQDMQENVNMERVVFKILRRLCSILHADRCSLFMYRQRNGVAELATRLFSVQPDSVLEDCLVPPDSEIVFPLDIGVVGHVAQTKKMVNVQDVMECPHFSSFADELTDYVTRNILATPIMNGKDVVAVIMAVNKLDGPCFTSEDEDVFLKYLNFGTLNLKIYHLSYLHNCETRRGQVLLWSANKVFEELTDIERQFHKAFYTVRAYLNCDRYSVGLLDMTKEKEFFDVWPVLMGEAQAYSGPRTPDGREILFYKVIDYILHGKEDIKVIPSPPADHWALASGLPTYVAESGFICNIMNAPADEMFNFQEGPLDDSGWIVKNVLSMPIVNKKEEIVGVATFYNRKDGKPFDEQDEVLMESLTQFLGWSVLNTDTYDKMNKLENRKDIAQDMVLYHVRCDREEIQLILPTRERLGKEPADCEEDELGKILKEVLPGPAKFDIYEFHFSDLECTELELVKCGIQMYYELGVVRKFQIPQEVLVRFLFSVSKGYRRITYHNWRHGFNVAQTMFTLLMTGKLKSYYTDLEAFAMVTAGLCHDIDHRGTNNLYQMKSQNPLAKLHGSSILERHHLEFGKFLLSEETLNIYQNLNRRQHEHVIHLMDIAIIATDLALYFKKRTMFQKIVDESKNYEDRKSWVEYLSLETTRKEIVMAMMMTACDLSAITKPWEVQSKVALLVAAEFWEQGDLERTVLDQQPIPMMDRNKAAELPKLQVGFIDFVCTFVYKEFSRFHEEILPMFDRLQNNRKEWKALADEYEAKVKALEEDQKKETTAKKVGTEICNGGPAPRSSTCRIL

[1] = target: Adrenergic, NE Transporter (Homo sapiens, UniProt P23975); experiment: Biochemical assay Adrenergic, NE Transporter; assay type: binding; details: Hu; for Ki: value in parentheses
Sequence of Adrenergic, NE Transporter (P23975 whole entry): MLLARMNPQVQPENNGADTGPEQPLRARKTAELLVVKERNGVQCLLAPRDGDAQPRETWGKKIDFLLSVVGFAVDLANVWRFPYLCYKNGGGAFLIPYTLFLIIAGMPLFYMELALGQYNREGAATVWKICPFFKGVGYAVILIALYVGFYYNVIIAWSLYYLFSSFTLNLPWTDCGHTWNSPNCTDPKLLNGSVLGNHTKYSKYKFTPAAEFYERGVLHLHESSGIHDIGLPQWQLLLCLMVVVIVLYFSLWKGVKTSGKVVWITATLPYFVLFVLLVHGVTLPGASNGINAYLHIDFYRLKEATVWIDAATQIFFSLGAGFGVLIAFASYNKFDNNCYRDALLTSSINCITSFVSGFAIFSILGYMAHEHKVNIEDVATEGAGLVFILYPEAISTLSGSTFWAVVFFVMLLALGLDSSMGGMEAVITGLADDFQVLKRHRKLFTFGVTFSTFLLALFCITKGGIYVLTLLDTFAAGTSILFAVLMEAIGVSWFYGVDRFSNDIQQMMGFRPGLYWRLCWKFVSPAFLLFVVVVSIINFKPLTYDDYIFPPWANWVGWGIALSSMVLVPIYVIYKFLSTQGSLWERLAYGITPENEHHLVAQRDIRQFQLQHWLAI

Work on `CCCc1c(SCCCOc2ccc(C(C)=O)c(OCCCC(=O)O)c2CCC)ccc(C(C)=O)c1O` [Compound 1, 4-[6-acetyl-3-[3-(4-acetyl-3-hydroxy-2-propylphenylthio)propoxy]-2-propylphenoxy]butyric acid] yielded an IC50 (5-LO) of 1110 nM, an IC50 (Adrenergic α2B) of 2810 nM and a Ki (Adrenergic α2B) of 1280 nM. The IC50 (PDE1) was 741 nM, the IC50 (PDE6) was 2050 nM and the IC50 [1] was 3500 nM. For the same molecule, the Ki [1] was 3470 nM.

With `CCCc1c(SCCCOc2ccc(C(C)O)c(OCCCC(=O)O)c2CCC)ccc(C(C)=O)c1O` (centres unmarked) [Compound 2] the IC50 (5-LO) was 1610 nM, the IC50 (Adrenergic α2B) was 1600 nM and the Ki (Adrenergic α2B) was 732 nM. The IC50 (PDE1) was 3080 nM, the IC50 (PDE6) was 1730 nM and the IC50 [1] was 2050 nM. For the same molecule, the Ki [1] was 2030 nM.

Reference: US8026282B2, “Phenoxyalkylcarboxylic acid derivatives in the treatment of irritable bowel syndrome” (Medicinova, Inc., priority 2004, dated 2011)
